# Data taken from PubChem BioAssay (NCI).
#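 Abbreviation: GI50, concentration required for 50% inhibition of growth. TGI is the concentration that stops growth completely.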
# How the values were obtained:
# Assay in all cases: DTP human tumour cell line panel, 384-well format
# UO-31 renal = tested on: UO-31 renal
# NCI-H322M lung = tested on: NCI-H322M lung
# HOP-62 NSCLC = tested on: HOP-62 NSCLC
# T-47D breast = tested on: T-47D breast
# RXF 393 renal = tested on: RXF 393 renal
# RPMI-8226 leukemia = tested on: RPMI-8226 leukemia
# IGROV1 ovarian = tested on: IGROV1 ovarian
# SNB-19 CNS = tested on: SNB-19 CNS
# HCT-15 colon = tested on: HCT-15 colon
# NCI-H226 lung = tested on: NCI-H226 lung
# SNB-75 CNS = tested on: SNB-75 CNS
# TK-10 renal = tested on: TK-10 renal
# COLO 205 colon = tested on: COLO 205 colon
# SK-MEL-5 melanoma = tested on: SK-MEL-5 melanoma
# HS 578T breast = tested on: HS 578T breast
# OVCAR-4 ovarian = tested on: OVCAR-4 ovarian
# MOLT-4 leukemia = tested on: MOLT-4 leukemia
# LOX IMVI melanoma = tested on: LOX IMVI melanoma
# SR leukemia = tested on: SR leukemia
# SF-295 CNS = tested on: SF-295 CNS
# M14 melanoma = tested on: M14 melanoma
# BT-549 breast = tested on: BT-549 breast
# MCF7 breast = tested on: MCF7 breast
# HOP-92 NSCLC = tested on: HOP-92 NSCLC
# KM12 colon = tested on: KM12 colon
# UACC-62 melanoma = tested on: UACC-62 melanoma
# PC-3 prostate = tested on: PC-3 prostate
# NCI-H23 lung = tested on: NCI-H23 lung
# NCI-H522 lung = tested on: NCI-H522 lung
# SF-268 CNS = tested on: SF-268 CNS
# MALME-3M melanoma = tested on: MALME-3M melanoma
# MDA-MB-231 breast = tested on: MDA-MB-231 breast
# OVCAR-5 ovarian = tested on: OVCAR-5 ovarian
# OVCAR-3 ovarian = tested on: OVCAR-3 ovarian
# SK-OV-3 ovarian = tested on: SK-OV-3 ovarian
# MDA-MB-468 breast = tested on: MDA-MB-468 breast
# OVCAR-8 ovarian = tested on: OVCAR-8 ovarian
# U251 glioblastoma = tested on: U251 glioblastoma
# SK-MEL-28 melanoma = tested on: SK-MEL-28 melanoma
# EKVX NSCLC = tested on: EKVX NSCLC
# A498 renal = tested on: A498 renal
# HCC-2998 colon = tested on: HCC-2998 colon
# UACC-257 melanoma = tested on: UACC-257 melanoma
# SF-539 CNS = tested on: SF-539 CNS
# HCT-116 colon = tested on: HCT-116 colon
# 786-0 renal = tested on: 786-0 renal
# HT29 colon = tested on: HT29 colon
# ACHN renal = tested on: ACHN renal
# NCI-H460 NSCLC = tested on: NCI-H460 NSCLC
# SN12C renal = tested on: SN12C renal
# NCI/ADR-RES ovarian = tested on: NCI/ADR-RES ovarian
# CAKI-1 renal = tested on: CAKI-1 renal
# A549 NSCLC = tested on: A549 NSCLC
# DU-145 prostate = tested on: DU-145 prostate
# SW-620 colon = tested on: SW-620 colon
# MDA-MB-435 melanoma = tested on: MDA-MB-435 melanoma
smiles,measurement,setting,value
Cn1cnc2c(F)c(Nc3ccc(Br)cc3Cl)c(C(=O)NOCCO)cc21,GI50,UO-31 renal,3.21 µM
same,TGI,UO-31 renal,21.2 µM
same,GI50,NCI-H322M lung,0.363 µM
same,TGI,NCI-H322M lung,> 100 µM
same,GI50,HOP-62 NSCLC,1.22 µM
same,TGI,HOP-62 NSCLC,> 100 µM
same,GI50,T-47D breast,84.8 µM
same,TGI,T-47D breast,> 100 µM
same,GI50,RXF 393 renal,0.101 µM
same,TGI,RXF 393 renal,12.3 µM
same,GI50,RPMI-8226 leukemia,21.1 µM
same,TGI,RPMI-8226 leukemia,> 100 µM
same,GI50,IGROV1 ovarian,0.914 µM
same,TGI,IGROV1 ovarian,47 µM
same,GI50,SNB-19 CNS,51.5 µM
same,TGI,SNB-19 CNS,> 100 µM
same,GI50,HCT-15 colon,21.5 µM
same,TGI,HCT-15 colon,> 100 µM
same,GI50,NCI-H226 lung,0.267 µM
same,TGI,NCI-H226 lung,38.7 µM
same,GI50,SNB-75 CNS,3.12 µM
same,TGI,SNB-75 CNS,85.9 µM
same,GI50,TK-10 renal,42.4 µM
same,TGI,TK-10 renal,> 100 µM
same,GI50,COLO 205 colon,0.02 µM
same,TGI,COLO 205 colon,0.122 µM
same,GI50,SK-MEL-5 melanoma,0.0449 µM
same,TGI,SK-MEL-5 melanoma,0.616 µM
same,GI50,HS 578T breast,17.5 µM
same,TGI,HS 578T breast,> 100 µM
same,GI50,OVCAR-4 ovarian,14.4 µM
same,TGI,OVCAR-4 ovarian,> 100 µM
same,GI50,MOLT-4 leukemia,49 µM
same,TGI,MOLT-4 leukemia,> 100 µM
same,GI50,LOX IMVI melanoma,0.425 µM
same,TGI,LOX IMVI melanoma,13.5 µM
same,GI50,SR leukemia,47 µM
same,TGI,SR leukemia,> 100 µM
same,GI50,SF-295 CNS,> 100 µM
same,TGI,SF-295 CNS,> 100 µM
same,GI50,M14 melanoma,0.0211 µM
same,TGI,M14 melanoma,0.144 µM
same,GI50,BT-549 breast,6.05 µM
same,TGI,BT-549 breast,52.1 µM
same,GI50,MCF7 breast,> 100 µM
same,TGI,MCF7 breast,> 100 µM
same,GI50,HOP-92 NSCLC,2.08 µM
same,TGI,HOP-92 NSCLC,14.5 µM
same,GI50,KM12 colon,0.481 µM
same,TGI,KM12 colon,> 100 µM
same,GI50,UACC-62 melanoma,0.0318 µM
same,TGI,UACC-62 melanoma,0.311 µM
same,GI50,PC-3 prostate,> 100 µM
same,TGI,PC-3 prostate,> 100 µM
same,GI50,NCI-H23 lung,0.26 µM
same,TGI,NCI-H23 lung,9.91 µM
same,GI50,NCI-H522 lung,42.8 µM
same,TGI,NCI-H522 lung,> 100 µM
same,GI50,SF-268 CNS,> 100 µM
same,TGI,SF-268 CNS,> 100 µM
same,GI50,MALME-3M melanoma,0.0114 µM
same,TGI,MALME-3M melanoma,0.0363 µM
same,GI50,MDA-MB-231 breast,1.06 µM
same,TGI,MDA-MB-231 breast,17.3 µM
same,GI50,OVCAR-5 ovarian,0.205 µM
same,TGI,OVCAR-5 ovarian,> 100 µM
same,GI50,OVCAR-3 ovarian,44.9 µM
same,TGI,OVCAR-3 ovarian,> 100 µM
same,GI50,SK-OV-3 ovarian,> 100 µM
same,TGI,SK-OV-3 ovarian,> 100 µM
same,GI50,MDA-MB-468 breast,55.3 µM
same,TGI,MDA-MB-468 breast,> 100 µM
same,GI50,OVCAR-8 ovarian,67.4 µM
same,TGI,OVCAR-8 ovarian,> 100 µM
same,GI50,U251 glioblastoma,19.5 µM
same,TGI,U251 glioblastoma,> 100 µM
same,GI50,SK-MEL-28 melanoma,0.0217 µM
same,TGI,SK-MEL-28 melanoma,0.147 µM
same,GI50,EKVX NSCLC,18.6 µM
same,TGI,EKVX NSCLC,> 100 µM
same,GI50,A498 renal,3.46 µM
same,TGI,A498 renal,35.4 µM
same,GI50,HCC-2998 colon,0.0284 µM
same,TGI,HCC-2998 colon,1.3 µM
same,GI50,UACC-257 melanoma,0.0456 µM
same,TGI,UACC-257 melanoma,0.278 µM
same,GI50,SF-539 CNS,12.2 µM
same,TGI,SF-539 CNS,56.5 µM
same,GI50,HCT-116 colon,0.553 µM
same,TGI,HCT-116 colon,12.2 µM
same,GI50,786-0 renal,12.2 µM
same,TGI,786-0 renal,> 100 µM
same,GI50,HT29 colon,0.0948 µM
same,TGI,HT29 colon,> 100 µM
same,GI50,ACHN renal,6.87 µM
same,TGI,ACHN renal,> 100 µM
same,GI50,NCI-H460 NSCLC,> 100 µM
same,TGI,NCI-H460 NSCLC,> 100 µM
same,GI50,SN12C renal,7.8 µM
same,TGI,SN12C renal,> 100 µM
same,GI50,NCI/ADR-RES ovarian,> 100 µM
same,TGI,NCI/ADR-RES ovarian,> 100 µM
same,GI50,CAKI-1 renal,1.73 µM
same,TGI,CAKI-1 renal,> 100 µM
same,GI50,A549 NSCLC,0.58 µM
same,TGI,A549 NSCLC,> 100 µM
same,GI50,DU-145 prostate,42.4 µM
same,TGI,DU-145 prostate,> 100 µM
same,GI50,SW-620 colon,0.039 µM
same,TGI,SW-620 colon,> 100 µM
same,GI50,MDA-MB-435 melanoma,0.266 µM
same,TGI,MDA-MB-435 melanoma,> 100 µM
